From ChEMBL document CHEMBL4390666, “Chemical manipulations on the 1,4-dioxane ring of 5-HT1A receptor agonists lead to antagonists endowed with antitumor activity in prostate cancer cells” (Eur J Med Chem, 2019)
Calls of active or inactive are those of the source. The rule behind the calls is not given here.

Experiments:
[1] = biological target: T1, Alpha-1D adrenergic receptor (Homo sapiens, UniProt P25100); assay: biochemical
T1 sequence (P25100 whole entry): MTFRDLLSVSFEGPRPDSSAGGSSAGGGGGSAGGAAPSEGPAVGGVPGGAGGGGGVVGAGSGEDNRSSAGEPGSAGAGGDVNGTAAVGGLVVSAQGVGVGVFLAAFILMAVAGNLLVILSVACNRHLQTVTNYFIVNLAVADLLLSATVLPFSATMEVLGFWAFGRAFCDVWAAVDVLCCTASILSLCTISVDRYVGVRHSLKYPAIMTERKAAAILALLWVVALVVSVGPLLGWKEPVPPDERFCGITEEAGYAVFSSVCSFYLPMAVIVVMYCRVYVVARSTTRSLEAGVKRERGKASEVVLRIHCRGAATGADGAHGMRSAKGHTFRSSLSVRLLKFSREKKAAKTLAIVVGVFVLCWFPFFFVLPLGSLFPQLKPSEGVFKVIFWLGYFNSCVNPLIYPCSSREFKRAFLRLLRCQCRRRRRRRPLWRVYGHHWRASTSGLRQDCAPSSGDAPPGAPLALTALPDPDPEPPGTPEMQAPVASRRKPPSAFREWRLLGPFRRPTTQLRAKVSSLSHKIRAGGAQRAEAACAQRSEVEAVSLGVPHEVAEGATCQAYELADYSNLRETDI
Description: Displacement of [3H]Prazosin from human recombinant alpha 1D adrenergic receptor expressed in CHO cells incubated for 30 mins by radioligand competition binding assay

[2] = biological target: T2, 5-hydroxytryptamine receptor 1A (Homo sapiens, UniProt P08908); assay: biochemical
T2 sequence (P08908 whole entry): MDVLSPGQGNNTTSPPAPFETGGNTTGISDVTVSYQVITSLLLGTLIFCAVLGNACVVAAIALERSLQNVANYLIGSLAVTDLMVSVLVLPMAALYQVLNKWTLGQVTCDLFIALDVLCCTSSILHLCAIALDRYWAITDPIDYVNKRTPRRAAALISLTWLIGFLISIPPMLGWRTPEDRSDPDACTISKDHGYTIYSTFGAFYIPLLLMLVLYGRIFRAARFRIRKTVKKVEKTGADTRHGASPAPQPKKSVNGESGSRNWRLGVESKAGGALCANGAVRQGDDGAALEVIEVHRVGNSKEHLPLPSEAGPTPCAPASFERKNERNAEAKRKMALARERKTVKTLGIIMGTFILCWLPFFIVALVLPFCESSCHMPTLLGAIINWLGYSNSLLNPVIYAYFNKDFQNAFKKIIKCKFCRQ

[3] = biological target: T3, Alpha-1A adrenergic receptor (Homo sapiens, UniProt P35348); assay: biochemical
T3 sequence (P35348 whole entry): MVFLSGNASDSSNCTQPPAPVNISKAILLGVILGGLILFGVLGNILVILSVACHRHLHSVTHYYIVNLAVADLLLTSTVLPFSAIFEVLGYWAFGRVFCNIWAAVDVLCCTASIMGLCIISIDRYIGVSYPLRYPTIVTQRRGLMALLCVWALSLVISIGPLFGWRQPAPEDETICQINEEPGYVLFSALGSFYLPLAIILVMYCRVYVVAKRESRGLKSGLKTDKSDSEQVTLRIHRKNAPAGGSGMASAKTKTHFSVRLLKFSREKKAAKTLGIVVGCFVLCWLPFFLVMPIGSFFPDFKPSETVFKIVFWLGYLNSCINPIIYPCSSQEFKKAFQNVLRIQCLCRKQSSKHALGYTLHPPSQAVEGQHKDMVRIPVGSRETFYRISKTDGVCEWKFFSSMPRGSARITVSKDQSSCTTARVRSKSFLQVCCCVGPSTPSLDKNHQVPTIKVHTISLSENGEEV
Description: Displacement of [3H]Prazosin from human recombinant alpha 1A adrenergic receptor expressed in CHO cells incubated for 30 mins by radioligand competition binding assay

[4] = biological target: T4, Alpha-1B adrenergic receptor (Homo sapiens, UniProt P35368); assay: biochemical
T4 sequence (P35368 whole entry): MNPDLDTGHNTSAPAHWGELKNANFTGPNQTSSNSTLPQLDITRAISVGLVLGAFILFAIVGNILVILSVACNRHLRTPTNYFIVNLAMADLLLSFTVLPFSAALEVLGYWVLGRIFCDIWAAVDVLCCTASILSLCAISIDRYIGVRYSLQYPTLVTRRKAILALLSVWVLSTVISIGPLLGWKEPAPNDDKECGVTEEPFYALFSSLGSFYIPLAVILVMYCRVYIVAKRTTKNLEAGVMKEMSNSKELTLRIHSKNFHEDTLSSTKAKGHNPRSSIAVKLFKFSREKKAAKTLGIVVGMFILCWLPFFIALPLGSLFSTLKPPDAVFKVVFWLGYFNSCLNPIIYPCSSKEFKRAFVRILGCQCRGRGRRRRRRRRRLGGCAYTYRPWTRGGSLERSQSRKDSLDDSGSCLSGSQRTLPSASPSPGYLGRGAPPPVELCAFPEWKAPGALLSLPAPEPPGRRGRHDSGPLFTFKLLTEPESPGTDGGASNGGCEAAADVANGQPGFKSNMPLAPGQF
Description: Displacement of [3H]Prazosin from human recombinant alpha 1B adrenergic receptor expressed in CHO cells incubated for 30 mins by radioligand competition binding assay

[5] = biological target: T5, 5-hydroxytryptamine receptor 1A (Homo sapiens) (UniProt P08908); assay: Agonist activity at cloned human 5-HT1A receptor transfected in human HeLa cell membranes assessed as stimulation of [35S]GTPgammaS binding preincubated for 20 mins followed by [35S]GTPgammaS addition and measured after 30 mins by liquid scintillation counting; type: functional
T5 sequence (whole entry): T2 sequence (P08908 whole entry)

[6] = biological target: T5, 5-hydroxytryptamine receptor 1A (Homo sapiens); assay: Agonist activity at cloned human 5-HT1A receptor transfected in human HeLa cell membranes preincubated for 20 mins followed by [35S]GTPgammaS addition and measured after 30 mins by liquid scintillation counting relative to 8-OH-DPAT; type: functional
D(3) dopamine receptor = D(3) dopamine receptor (Homo sapiens, UniProt P35462); assay: Displacement of [3H]N-methylspiperone from human dopamine D3 receptor expressed in HEK293 cell membranes incubated for 1 hr by liquid scintillation counting
D(4) dopamine receptor = biological target: T6, D(4) dopamine receptor (Homo sapiens, UniProt P21917); assay: Displacement of [3H]N-methylspiperone from human dopamine D4 receptor expressed in HEK293 cell membranes incubated for 1 hr by liquid scintillation counting
T6 sequence (P21917 whole entry): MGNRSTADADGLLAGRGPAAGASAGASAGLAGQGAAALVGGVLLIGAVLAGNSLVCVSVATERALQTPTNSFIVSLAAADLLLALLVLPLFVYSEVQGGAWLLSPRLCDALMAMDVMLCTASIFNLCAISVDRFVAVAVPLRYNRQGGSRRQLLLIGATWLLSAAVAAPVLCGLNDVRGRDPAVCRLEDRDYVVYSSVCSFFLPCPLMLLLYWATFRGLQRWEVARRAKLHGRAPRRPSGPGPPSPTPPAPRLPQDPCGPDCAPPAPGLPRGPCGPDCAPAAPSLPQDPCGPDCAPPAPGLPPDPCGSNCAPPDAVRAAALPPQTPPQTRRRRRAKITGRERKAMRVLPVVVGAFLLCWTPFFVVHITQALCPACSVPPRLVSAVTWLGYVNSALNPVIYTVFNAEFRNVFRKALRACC

D(2) dopamine receptor = D(2) dopamine receptor (Homo sapiens, UniProt P14416); assay: Displacement of [3H]N-methylspiperone from human dopamine D2 receptor expressed in HEK293 cell membranes incubated for 1 hr by liquid scintillation counting
[7] = biological target: T5, 5-hydroxytryptamine receptor 1A (Homo sapiens); conditions: HeLa
DU-145 [8] = assay: Growth inhibition of human DU145 cells incubated for 48 hrs by SRB assay; type: functional; conditions: DU-145, 48 h; for CC50: read-out: LC50 (the source's name)
PC-3 [9] = assay: Growth inhibition of human PC3 cells incubated for 48 hrs by SRB assay; type: functional; conditions: PC-3, 48 h; for CC50: read-out: LC50 (the source's name)
Fibroblast = assay: (§1) Growth inhibition of human fibroblast cells incubated for 48 hrs by SRB assay; type: cell-based; conditions: fibroblast, 48 h
[10] = as §1; type: cell-based; conditions: human fibroblast cells
DU-145 [11] = assay: Inhibition of 5-HT-stimulated human DU145 cells proliferation at 5 to 10 uM incubated for 48 hrs by SRB assay; type: functional, cell-based
PC-3 [12] = assay: Inhibition of norepinephrine-stimulated human PC3 cells proliferation at 5 to 10 uM incubated for 48 hrs by SRB assay; type: functional, cell-based
PC-3 [13] = assay: Inhibition of 5-HT-stimulated human PC3 cells proliferation at 5 to 10 uM incubated for 48 hrs by SRB assay; type: functional, cell-based
DU-145 [14] = assay: Inhibition of norepinephrine-stimulated human DU145 cells proliferation at 5 to 10 uM incubated for 48 hrs by SRB assay; type: functional, cell-based

D(3) dopamine receptor, sequence (P35462 whole entry): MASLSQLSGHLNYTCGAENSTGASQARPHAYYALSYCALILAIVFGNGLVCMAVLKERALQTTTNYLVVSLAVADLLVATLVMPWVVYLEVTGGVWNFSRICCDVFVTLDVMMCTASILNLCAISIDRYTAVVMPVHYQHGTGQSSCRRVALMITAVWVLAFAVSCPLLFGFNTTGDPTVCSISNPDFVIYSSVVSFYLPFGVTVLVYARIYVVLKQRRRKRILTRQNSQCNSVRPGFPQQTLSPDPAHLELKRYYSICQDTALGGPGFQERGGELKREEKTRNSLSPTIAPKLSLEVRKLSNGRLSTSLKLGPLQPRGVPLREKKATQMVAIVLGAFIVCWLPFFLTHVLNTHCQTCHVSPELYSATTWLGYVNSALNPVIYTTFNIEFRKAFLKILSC
D(2) dopamine receptor, sequence (P14416 whole entry): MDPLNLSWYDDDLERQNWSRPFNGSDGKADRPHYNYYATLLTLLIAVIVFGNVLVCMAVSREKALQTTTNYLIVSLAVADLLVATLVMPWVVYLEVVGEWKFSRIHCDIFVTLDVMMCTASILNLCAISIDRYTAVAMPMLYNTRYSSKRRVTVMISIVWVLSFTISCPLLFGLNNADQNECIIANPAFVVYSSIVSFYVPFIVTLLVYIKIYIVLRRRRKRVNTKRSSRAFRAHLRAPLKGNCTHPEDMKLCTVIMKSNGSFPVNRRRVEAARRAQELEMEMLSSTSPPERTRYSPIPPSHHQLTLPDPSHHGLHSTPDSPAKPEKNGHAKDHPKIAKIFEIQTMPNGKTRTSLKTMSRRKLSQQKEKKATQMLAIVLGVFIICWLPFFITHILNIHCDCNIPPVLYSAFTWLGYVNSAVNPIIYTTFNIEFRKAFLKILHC

Ki [1] [µM] | Ki [2] [µM] | Ki [3] [µM] | Ki [4] [µM] | Structure (SMILES) | other results
0.191 | 0.0708 | > 1 | > 1 | COc1ccccc1N1CCN(C[C@H]2OCCO[C@H]2c2ccccc2)CC1 (relative stereo) | 
> 1 | 0.0977 | > 1 | > 1 | COc1cccc(OC)c1OCCNC[C@H]1OCCO[C@@H]1c1ccccc1 (relative stereo) | 
0.0955 | 0.00955 | > 1 | > 1 | COc1ccccc1OCCNC[C@H]1OCCO[C@@H]1c1ccccc1 (relative stereo) | pKb [7]: 8.2
> 1 | 0.055 | > 1 | > 1 | c1ccc(OCCNC[C@H]2OCCO[C@@H]2c2ccccc2)cc1 (relative stereo) | 
> 1 | 0.0661 | > 1 | > 1 | COc1cccc(OC)c1OCCNCC1OCCOC1(c1ccccc1)c1ccccc1 (stereo not drawn) | 
0.126 | 0.0204 | > 1 | > 1 | COc1ccccc1OCCNC[C@H]1OCCO[C@H]1c1ccccc1 (relative stereo) | pD2 [5]: 7.13; Emax [6]: 24.3%
0.0692 | 0.0759 | > 1 | > 1 | COc1ccccc1OCCNCC1(c2ccccc2)COCCO1 (stereo not drawn) | 

The next lines start with the compound.

Structure (SMILES) | Ki [1] [µM] | Ki [2] [µM] | Ki [3] [µM] | Ki [4] [µM] | other results
c1ccc(OCCNC[C@H]2OCCO[C@H]2c2ccccc2)cc1 (relative stereo) | > 1 | 0.214 | > 1 | > 1 | 
c1ccc(OCCNCC2OCCOC2(c2ccccc2)c2ccccc2)cc1 (stereo not drawn) | 0.316 | 0.0282 | > 1 | > 1 | pD2 [5]: 6.71; Emax [6]: 32.9%
COc1ccccc1N1CCN(CC2COCC(c3ccccc3)(c3ccccc3)O2)CC1 (stereo not drawn) | 0.00174 | 0.00501 | 0.00263 | 0.0229 | Ki (D(3) dopamine receptor): 0.257 µM; Ki (D(4) dopamine receptor): 1.38 µM; pD2 [5]: 7.01; Ki (D(2) dopamine receptor): 0.112 µM; Emax [6]: 39.3%
COc1ccccc1N1CCN(CC2(c3ccccc3)COCCO2)CC1 (stereo not drawn) | > 1 | 0.174 | > 1 | > 1 | 
COc1ccccc1OCCNCC1COCC(c2ccccc2)(c2ccccc2)O1 (stereo not drawn) |  |  |  |  | GI50 (DU-145 [8]): 23 µM; TGI (DU-145 [8]): 42 µM; CC50 (DU-145 [8]): 77 µM; GI50 (PC-3 [9]): 26 µM; TGI (PC-3 [9]): 64 µM; CC50 (PC-3 [9]): 157 µM; pD2 [5]: 9.4; LC50 (Fibroblast): > 300 µM; TGI (Fibroblast): 121.6 µM; GI50 at 48 h [10]: 38.4 µM
COc1ccccc1OCCNCC1OCCOC1(c1ccccc1)c1ccccc1 (stereo not drawn) | 0.00741 | 0.00398 | > 1 | 0.0676 | Ki (D(3) dopamine receptor): 0.537 µM; inhibition (DU-145 [11]): Active; inhibition (PC-3 [12]): Active; pKb [7]: 8.5; Ki (D(4) dopamine receptor): 0.275 µM; GI50 (DU-145 [8]): 18 µM; TGI (DU-145 [8]): 32 µM; CC50 (DU-145 [8]): 55 µM; GI50 (PC-3 [9]): 13 µM; TGI (PC-3 [9]): 29 µM; CC50 (PC-3 [9]): 68 µM; inhibition (PC-3 [13]): Active; inhibition (DU-145 [14]): Active; LC50 (Fibroblast): 99.6 µM; TGI (Fibroblast): 50.2 µM; GI50 at 48 h [10]: 30.5 µM; Ki (D(2) dopamine receptor): 0.324 µM
COc1cccc(OC)c1OCCNC[C@H]1OCCO[C@H]1c1ccccc1 (relative stereo) | > 1 | 0.182 | > 1 | > 1 | 
COc1ccccc1N1CCN(C[C@H]2OCCO[C@@H]2c2ccccc2)CC1 (relative stereo) | 0.0537 | 0.214 | > 1 | > 1 | 
COc1ccccc1N1CCN(C[C@H]2OCCOC2(c2ccccc2)c2ccccc2)CC1 | 0.0891 | 0.012 | 0.355 | 0.38 | Ki (D(3) dopamine receptor): 2.88 µM; pKb [7]: 8.14; Ki (D(4) dopamine receptor): 9.77 µM; GI50 (DU-145 [8]): 35 µM; TGI (DU-145 [8]): 80 µM; CC50 (DU-145 [8]): 180 µM; GI50 (PC-3 [9]): 25 µM; TGI (PC-3 [9]): 78 µM; CC50 (PC-3 [9]): 240 µM; LC50 (Fibroblast): > 300 µM; TGI (Fibroblast): > 300 µM; GI50 at 48 h [10]: > 300 µM; Ki (D(2) dopamine receptor): 2.19 µM
COc1cccc(OC)c1OCCNCC1(c2ccccc2)COCCO1 (stereo not drawn) | > 1 | > 1 | > 1 | > 1 | 
c1ccc(OCCNCC2(c3ccccc3)COCCO2)cc1 (stereo not drawn) | > 1 | 0.269 | > 1 | > 1 | 
